Experimental data from PubChem BioAssay (NCI).
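Interpolation was linear, between the two tested concentrations surrounding the appropriate level; five concentrations were tested over 48 hours in 96-well plates. Definition used: TGI = concentration required for complete inhibition of growth.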

Experiments:
Test in all cases: NCI tumour cell line growth inhibition, 48 h
UACC-257 melanoma = test system: UACC-257 melanoma
HT29 colon = test system: HT29 colon
NCI-H522 lung = test system: NCI-H522 lung
SW-620 colon = test system: SW-620 colon
SK-MEL-28 melanoma = test system: SK-MEL-28 melanoma
EKVX NSCLC = test system: EKVX NSCLC
HL-60(TB) leukemia = test system: HL-60(TB) leukemia
786-0 renal = test system: 786-0 renal
PC-3 prostate = test system: PC-3 prostate
HOP-92 NSCLC = test system: HOP-92 NSCLC
NCI-H460 lung = test system: NCI-H460 lung
COLO 205 colon = test system: COLO 205 colon
CAKI-1 renal = test system: CAKI-1 renal
M14 melanoma = test system: M14 melanoma
SNB-19 CNS = test system: SNB-19 CNS
MOLT-4 leukemia = test system: MOLT-4 leukemia
OVCAR-8 ovarian = test system: OVCAR-8 ovarian
NCI-H23 lung = test system: NCI-H23 lung
NCI/ADR-RES ovarian = test system: NCI/ADR-RES ovarian
SK-OV-3 ovarian = test system: SK-OV-3 ovarian
CCRF-CEM leukemia = test system: CCRF-CEM leukemia
MALME-3M melanoma = test system: MALME-3M melanoma
LOX IMVI melanoma = test system: LOX IMVI melanoma
HCC-2998 colon = test system: HCC-2998 colon
A549 NSCLC = test system: A549 NSCLC
OVCAR-4 ovarian = test system: OVCAR-4 ovarian
RXF 393 renal = test system: RXF 393 renal
BT-549 breast = test system: BT-549 breast
SF-268 CNS = test system: SF-268 CNS
KM12 colon = test system: KM12 colon
NCI-H226 lung = test system: NCI-H226 lung
SR leukemia = test system: SR leukemia
HCT-116 colon = test system: HCT-116 colon
T-47D breast = test system: T-47D breast
A498 renal = test system: A498 renal
SK-MEL-2 melanoma = test system: SK-MEL-2 melanoma
SNB-75 CNS = test system: SNB-75 CNS
SN12C renal = test system: SN12C renal
K-562 leukemia = test system: K-562 leukemia
SK-MEL-5 melanoma = test system: SK-MEL-5 melanoma
ACHN renal = test system: ACHN renal
MCF7 breast = test system: MCF7 breast
OVCAR-5 ovarian = test system: OVCAR-5 ovarian
MDA-N = test system: MDA-N
MDA-MB-435 = test system: MDA-MB-435
UACC-62 melanoma = test system: UACC-62 melanoma
HOP-62 NSCLC = test system: HOP-62 NSCLC
SF-539 CNS = test system: SF-539 CNS
IGROV1 ovarian = test system: IGROV1 ovarian
HS 578T breast = test system: HS 578T breast
HCT-15 colon = test system: HCT-15 colon
SF-295 CNS = test system: SF-295 CNS
UO-31 renal = test system: UO-31 renal
MDA-MB-231 breast = test system: MDA-MB-231 breast
U251 CNS = test system: U251 CNS
TK-10 renal = test system: TK-10 renal
RPMI-8226 leukemia = test system: RPMI-8226 leukemia
DU-145 prostate = test system: DU-145 prostate
OVCAR-3 ovarian = test system: OVCAR-3 ovarian
HOP-18 NSCLC = test system: HOP-18 NSCLC
M19-MEL melanoma = test system: M19-MEL melanoma
DLD-1 colon = test system: DLD-1 colon
KM20L2 colon = test system: KM20L2 colon
LXFL 529 NSCLC = test system: LXFL 529 NSCLC
DMS 114 small cell lung = test system: DMS 114 small cell lung
DMS 273 small cell lung = test system: DMS 273 small cell lung

SMILES: C=C1c2nc3ccccc3n2C=C(c2ccc(OC)cc2)N1c1ccc(OCCN2CCCCC2)cc1
- TGI (UACC-257 melanoma): 10.8 µM
- TGI (HT29 colon): 43.3 µM
- TGI (NCI-H522 lung): > 100 µM
- TGI (SW-620 colon): 52.3 µM
- TGI (SK-MEL-28 melanoma): > 100 µM
- TGI (EKVX NSCLC): > 100 µM
- TGI (HL-60(TB) leukemia): 20 µM
- TGI (786-0 renal): > 52.5 µM
- TGI (PC-3 prostate): > 51.3 µM
- TGI (HOP-92 NSCLC): > 82 µM
- TGI (NCI-H460 lung): 14.8 µM
- TGI (COLO 205 colon): 36.4 µM
- TGI (CAKI-1 renal): > 100 µM
- TGI (M14 melanoma): > 100 µM
- TGI (SNB-19 CNS): > 100 µM
- TGI (MOLT-4 leukemia): 38.6 µM
- TGI (OVCAR-8 ovarian): > 100 µM
- TGI (NCI-H23 lung): > 61.4 µM
- TGI (NCI/ADR-RES ovarian): > 86.4 µM
- TGI (SK-OV-3 ovarian): > 100 µM
- TGI (CCRF-CEM leukemia): 10.1 µM
- TGI (MALME-3M melanoma): > 100 µM
- TGI (LOX IMVI melanoma): > 44 µM
- TGI (HCC-2998 colon): 33.6 µM
- TGI (A549 NSCLC): > 84.6 µM
- TGI (OVCAR-4 ovarian): > 100 µM
- TGI (RXF 393 renal): > 77 µM
- TGI (BT-549 breast): > 100 µM
- TGI (SF-268 CNS): > 100 µM
- TGI (KM12 colon): > 100 µM
- TGI (NCI-H226 lung): > 96.7 µM
- TGI (SR leukemia): 28.6 µM
- TGI (HCT-116 colon): > 42.4 µM
- TGI (T-47D breast): > 100 µM
- TGI (A498 renal): > 84.5 µM
- TGI (SK-MEL-2 melanoma): > 51.6 µM
- TGI (SNB-75 CNS): > 100 µM
- TGI (SN12C renal): > 100 µM
- TGI (K-562 leukemia): > 100 µM
- TGI (SK-MEL-5 melanoma): > 58.5 µM
- TGI (ACHN renal): > 81.7 µM
- TGI (MCF7 breast): > 100 µM
- TGI (OVCAR-5 ovarian): > 100 µM
- TGI (MDA-N): > 100 µM
- TGI (MDA-MB-435): > 74.9 µM
- TGI (UACC-62 melanoma): > 100 µM
- TGI (HOP-62 NSCLC): > 100 µM
- TGI (SF-539 CNS): 81.2 µM
- TGI (IGROV1 ovarian): > 100 µM
- TGI (HS 578T breast): > 100 µM
- TGI (HCT-15 colon): > 100 µM
- TGI (SF-295 CNS): > 100 µM
- TGI (UO-31 renal): > 48.2 µM
- TGI (MDA-MB-231 breast): > 64.7 µM
- TGI (U251 CNS): > 91.3 µM
- TGI (TK-10 renal): 41.8 µM
- TGI (RPMI-8226 leukemia): 18.1 µM
- TGI (DU-145 prostate): > 100 µM
- TGI (OVCAR-3 ovarian): > 100 µM

SMILES: O=C1C(Cl)C(c2cccc([N+](=O)[O-])c2)N1n1cnc2ccccc2c1=O (stereo unspecified)
- TGI (UACC-257 melanoma): > 100 µM
- TGI (HOP-18 NSCLC): > 100 µM
- TGI (HT29 colon): > 100 µM
- TGI (NCI-H522 lung): > 100 µM
- TGI (SW-620 colon): > 100 µM
- TGI (SK-MEL-28 melanoma): > 100 µM
- TGI (EKVX NSCLC): > 100 µM
- TGI (HL-60(TB) leukemia): > 100 µM
- TGI (786-0 renal): > 100 µM
- TGI (NCI-H460 lung): > 100 µM
- TGI (COLO 205 colon): > 100 µM
- TGI (CAKI-1 renal): > 100 µM
- TGI (M14 melanoma): > 100 µM
- TGI (SNB-19 CNS): > 100 µM
- TGI (MOLT-4 leukemia): > 100 µM
- TGI (M19-MEL melanoma): > 100 µM
- TGI (OVCAR-8 ovarian): > 100 µM
- TGI (DLD-1 colon): > 100 µM
- TGI (NCI-H23 lung): > 100 µM
- TGI (SK-OV-3 ovarian): > 100 µM
- TGI (MALME-3M melanoma): > 100 µM
- TGI (LOX IMVI melanoma): > 100 µM
- TGI (HCC-2998 colon): > 100 µM
- TGI (A549 NSCLC): > 100 µM
- TGI (OVCAR-4 ovarian): > 100 µM
- TGI (RXF 393 renal): > 100 µM
- TGI (KM20L2 colon): > 100 µM
- TGI (SF-268 CNS): > 100 µM
- TGI (KM12 colon): > 100 µM
- TGI (NCI-H226 lung): > 100 µM
- TGI (SR leukemia): > 100 µM
- TGI (HCT-116 colon): > 100 µM
- TGI (LXFL 529 NSCLC): > 100 µM
- TGI (DMS 114 small cell lung): > 100 µM
- TGI (SK-MEL-2 melanoma): > 100 µM
- TGI (SNB-75 CNS): > 100 µM
- TGI (SN12C renal): > 100 µM
- TGI (K-562 leukemia): > 100 µM
- TGI (SK-MEL-5 melanoma): > 100 µM
- TGI (ACHN renal): > 100 µM
- TGI (OVCAR-5 ovarian): > 100 µM
- TGI (DMS 273 small cell lung): > 100 µM
- TGI (UACC-62 melanoma): > 100 µM
- TGI (HOP-62 NSCLC): > 100 µM
- TGI (IGROV1 ovarian): > 100 µM
- TGI (HCT-15 colon): > 100 µM
- TGI (SF-295 CNS): > 100 µM
- TGI (UO-31 renal): > 100 µM
- TGI (U251 CNS): > 100 µM
- TGI (TK-10 renal): > 100 µM
- TGI (RPMI-8226 leukemia): > 100 µM
- TGI (OVCAR-3 ovarian): > 100 µM
